From patent publication US20170304260A1, “ALTRENOGEST FORMULATION AND USES THEREOF FOR ESTRUS SYNCHRONISATION IN ANIMALS” (priority 2014, published 2017) come the findings set out here.

The series in a line: Storage stability of microcapsule emulsion / powder (Method 1, spray-drying). It counts as physicochemical. Particulars: liquid and dry form of the microcapsule emulsion, ambient temperature. The procedure:
Method 1: Dry Microcapsule Obtained by Atomisation (Spray-Drying)
The emulsion comprising the ingredients above was pre-homogenized with a Polytron™ homogenizer for 3 min at 9000 rpm, then homogenized with a two-stage Avestin™ homogenizer (3*5000 psi+1*500 psi).
Spray drying was performed under the following conditions: spray dryer BUCHI® Mini Spray Drier B-191 with a 2 mm nozzle diameter, air pressure of 60 psi. The emulsion was fed into the main chamber through peristatic pump, feed flow rate was 400 ml/h, inlet air temperature was 160° C. and outlet temperature was 65° C. The dried microcapsules were collected in a cyclone.
Particle size distribution of the final emulsion was less than 1 micron and the powder obtained by atomisation or freeze drying had good rehydration properties, low surface oil and low oxidation during the powder storage. Furthermore, the emulsion in liquid form containing 1.5% sodium caseinate and 15% sunflower oil was physically stable when pasteurized with no preservation agents added to it. Maltodextrin was used as a “wall material” to permit further drying of the emulsion. Additionally, the retention of Altrenogest was well preserved in both the liquid and dry form for a period of at least 5 months at ambient temperature.

Molecules are shown by their SMILES.

As for `C=CC[C@]1(O)CC[C@H]2[C@@H]3CCC4=CC(=O)CCC4=C3C=C[C@@]21C` [Altrenogest], the “period over which retention of Altrenogest was well preserved” value is listed as “at least 5 months”.
